Measured values reported in patent US20250339425A1 (Northeastern University, priority 2024, published 2025).
Where two headings read alike, the source gives them in different places.

How the values were obtained:
[1] = target: human α7 nAChR (Homo sapiens, UniProt P36544)
[2] = target: T1, α9 nAChR (Homo sapiens, UniProt Q9UGM1); assay: cell-based
[3] = target: T1, α9 nAChR; settings: for EC50: read-out: α9 EC50
[4] = tested on: BzATP-induced release of IL-1β by human monocytic THP-1 cells; assay: BzATP-induced release of IL-1β by LPS-primed monocytic THP-1 cells (ELISA); settings: for inhibitory effect on IL-1β release at the lowest concentration tested: 1 nM; for inhibition of BzATP-induced release of IL-1β: LPS-primed THP-1 cells, ACh at 10 μM; for antagonism of the effect of ACh on IL-1β release: all concentrations investigated (1 nM to 100 μM), ACh 10 μM
Protocol: Monocytic THP-1 cells were primed with lipopolysaccharide (LPS; 1 μg/ml, 5 hours). Thereafter, the P2X7 receptor agonist BzATP (100 μM) was added for another 40 minutes to trigger IL-1β release. […] The IL-1β concentrations obtained after stimulation with BzATP+solvent were set to 100% and all other values were calculated accordingly. Data are presented as individual data points, the bar represents the median, and whiskers encompass the 25th to 75th percentile. *p≤0.05, different from LPS-primed cells stimulated with BzATP alone. Friedman test followed by the Wilcoxon signed-rank test.
The new compounds were tested for the ability to down-regulate the ATP-mediated release of 10 IL-1β by human monocytic THP-1 cells.
Monocytic THP-1 cells were primed with lipopolysaccharide (LPS, 1 μg/ml) for 5 hours and further stimulated them with BzATP (100 μg/ml) for 40 minutes to induce the maturation and release of IL-1β.
The monocytic THP-1 cell line was obtained from the German Collection of Microorganisms and Cell Cultures (Braunschweig, Germany). […] Thereafter, 0.5×10^6 cells/0.5 ml and per well were seeded in 48-well plates (Greiner Bio-One, Frickenhausen, Germany) as described previously.^27 The cells were primed with LPS (1 μg/ml; E. coli O26:B6, Merck, Darmstadt, Germany, Cat #L2654) for 5 h under 5% CO2 atmosphere at 37° C. […] After the treatment, cells were spun down (500 g, 8 min, 4° C.) to collect the cell-free supernatants, that were stored at −20° C. for later measurements of IL-1β and lactate dehydrogenase (LDH) activity.
To measure IL-1β concentrations in the cell-free supernatants the Human IL-1 beta/IL-1F2 DuoSet enzyme-linked immunosorbent assay (ELISA) from R&D Systems (Cat #DY201) was used according to the supplier's instructions. In parallel, LDH activity was measured to test for cell viability at the end of the cell culture experiments, using the CytoTox 96® Non-Radioactive Cytotoxicity Assay (Promega, Madison, WI, United States; Cat #G1780) according to the supplier's instructions.
Results obtained in the BzATP-induced IL-1β release experiments were analyzed using SPSS (Version 27, IBM, Armonk, NY, United States). The data were analyzed first by the Friedman test followed by the Wilcoxon signed-rank test. […] The number (n) of individual experiments is indicated in the Figures and refers to independent experiments, which were performed on different days with different cell passages.

[5] = target: T1, α9 nAChR; assay: Inhibition of ACh-evoked currents, co-application with 60 μM ACh, oocytes expressing α9; assay type: cell-based; set-up: expressed in transfected cells; host or cells: Xenopus laevis oocytes injected with in vitro transcribed RNA; settings: co-applied with 60 μM ACh; read-out: IC50 as antagonist on α9
Protocol: (§1) FIGS. 13A-13B show inhibition concentration-response studies for chiral diMPP compounds (2R)PA-diMPP (8) and (2S)PA-diMPP (9), identified as α9 and α9α10 antagonists.
(§2) Experimental responses were measured relative to the preceding ACh control response. […] The transition from agonist to antagonist behavior in α7 to α9* nAChRs indicates a slightly bigger dialkyl tail on nitrogen, or perhaps more importantly, the asymmetry of the groups and potential for multiple rotamers is important for α9 agonism, while chirality is more important for α7 selectivity.
(§3) Two-electrode voltage-clamp experiments were conducted using OpusXpress 6000A (Molecular Devices, Union City CA, USA). Both the voltage and current electrodes were filled with 3 M KCl. Oocytes were voltage-clamped at −60 mV at room temperature. The oocytes were perfused with Ringer's solution (115 mM NaCl, 2.5 mM KCl, 1.8 mM CaCl2), 10 mM HEPES, 1 μM atropine, pH 7.2) at 2 ml/min. […] Drug applications were 12 s in duration followed by 181 s washout periods.

[6] = target: T2, α9α10 nAChR (Homo sapiens, UniProt Q9GZZ6+Q9UGM1); assay: Inhibition of ACh-evoked currents, co-application with 60 μM ACh, oocytes expressing α9α10; assay type: cell-based; settings: co-applied with 60 μM ACh; unit not printed for these values (α9 values in μM); read-out: IC50 as antagonist on α9α10
T2 construct: expressed in transfected cells; host or cells: Xenopus laevis oocytes injected with in vitro transcribed RNA
Protocol: as §1, §2, §3

[7] = in vitro; settings: BALB/c, mouse, pooled mouse plasma
[8] = In vitro metabolic stability in rat hepatocytes
[9] = Plasma protein binding
[10] = In vitro metabolic stability in pooled human liver microsomes
[11] = read-out: α7 EC50, Table 2, unit inferred
[12] = read-out: α7 EC50, Table 4, unit inferred
[13] = Table 4, chiral EMPPs and diMPPs
[14] = Table 1, net charge, relative to ACh maximum
[15] = read-out: α7 EC50, Table 1, unit inferred
[16] = Table 1, peak current, relative to ACh maximum
[17] = Table 1, unit not given (0.23 as 230 nM)

T1 sequence (Q9UGM1 26-479 limits assumed): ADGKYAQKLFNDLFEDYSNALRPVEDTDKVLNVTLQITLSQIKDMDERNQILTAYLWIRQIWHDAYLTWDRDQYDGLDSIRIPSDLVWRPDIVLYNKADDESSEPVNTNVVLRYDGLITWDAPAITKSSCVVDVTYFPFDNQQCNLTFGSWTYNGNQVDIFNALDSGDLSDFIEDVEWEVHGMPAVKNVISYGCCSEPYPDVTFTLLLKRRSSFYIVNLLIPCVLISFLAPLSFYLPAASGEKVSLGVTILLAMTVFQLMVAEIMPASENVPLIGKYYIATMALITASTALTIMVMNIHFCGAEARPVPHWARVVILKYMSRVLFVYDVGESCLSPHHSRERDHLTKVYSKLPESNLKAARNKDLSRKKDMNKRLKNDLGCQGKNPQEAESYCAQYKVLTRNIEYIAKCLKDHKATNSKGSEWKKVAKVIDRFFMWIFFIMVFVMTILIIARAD
Chain of human α7 nAChR (P36544 23-502): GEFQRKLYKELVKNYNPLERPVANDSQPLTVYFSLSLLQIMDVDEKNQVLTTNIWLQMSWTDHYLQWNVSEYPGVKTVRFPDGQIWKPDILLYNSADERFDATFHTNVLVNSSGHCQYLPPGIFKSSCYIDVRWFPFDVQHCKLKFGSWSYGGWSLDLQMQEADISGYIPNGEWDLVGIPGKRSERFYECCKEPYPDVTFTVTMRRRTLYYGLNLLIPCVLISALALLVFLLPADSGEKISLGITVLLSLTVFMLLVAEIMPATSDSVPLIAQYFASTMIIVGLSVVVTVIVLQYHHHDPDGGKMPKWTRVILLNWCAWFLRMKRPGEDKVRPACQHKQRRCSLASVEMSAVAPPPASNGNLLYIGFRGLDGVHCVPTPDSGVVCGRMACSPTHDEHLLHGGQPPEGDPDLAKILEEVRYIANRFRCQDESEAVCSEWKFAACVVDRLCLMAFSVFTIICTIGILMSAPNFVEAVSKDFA
T2 sequence (Q9UGM1 26-479 limits assumed): as the sequence (Q9UGM1 26-479 limits assumed) above
T2 sequence (Q9GZZ6 25-450): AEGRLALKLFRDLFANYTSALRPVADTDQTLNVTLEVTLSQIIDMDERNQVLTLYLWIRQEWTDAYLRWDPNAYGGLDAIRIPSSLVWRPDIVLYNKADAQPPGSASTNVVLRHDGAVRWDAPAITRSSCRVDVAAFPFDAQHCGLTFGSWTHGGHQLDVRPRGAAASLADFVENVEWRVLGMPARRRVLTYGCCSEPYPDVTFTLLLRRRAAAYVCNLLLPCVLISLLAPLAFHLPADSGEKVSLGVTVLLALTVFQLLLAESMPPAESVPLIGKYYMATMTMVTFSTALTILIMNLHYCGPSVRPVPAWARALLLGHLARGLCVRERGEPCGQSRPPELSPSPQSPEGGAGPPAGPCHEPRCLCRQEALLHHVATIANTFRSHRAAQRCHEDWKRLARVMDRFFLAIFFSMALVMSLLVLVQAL

## CC[N+]1(C)CCN(c2ccc(NC(=O)c3cccc(F)n3)cc2)CC1 [V-c]
[1]; Table 3
  α7 Imax: 0.000 ± 0.000
[2]
  EC50: 0.81 ± 0.38 µM
[3]; Table 3, reverse amide GATs
  α9 Imax: 1.2 ± 0.13

## CC[N+]1(C)CCN(c2ccc(C(=O)Nc3cccc(C)n3)cc2)C[C@H]1C (stereo partly drawn) [Compound IV-a, (2R)-1-ethyl-1,2-dimethyl-4-(4-((6-methylpyridin-2-yl)carbamoyl)phenyl)piperazin-1-ium iodide]
[4]
  inhibitory effect on IL-1β release at the lowest concentration tested: moderate but significant inhibitory effects
  inhibition of BzATP-induced release of IL-1β: significantly inhibited
[1]; Table 2, chiral compounds
  α7 Imax: 0.548 ± 0.02
[1]; Table 4
  α7 Imax: 0.55 ± 0.02
[1]; [11]
  EC50: 7.16 ± 1.29 µM
[1]; [12]
  EC50: 7.16 µM
[3]
  receptor selectivity α9 vs α7: selective towards α7
[3]; Table 2, chiral compounds
  α9 Imax: 0.0521 ± 0.013
[3]; [13]
  α9 Imax: 0.052 ± 0.013
[3]; Table 2, unit inferred
  EC50: 1.93 ± 2.25 µM
[3]; Table 4, unit inferred
  EC50: 1.93 ± 2.25 µM

## Cc1cccc(NC(=O)c2ccc(N3CC[N+](C)(C)[C@H](C)C3)cc2)n1 [IV-f]
[4]
  inhibition of BzATP-induced release of IL-1β: significantly inhibited
  antagonism of the effect of ACh on IL-1β release: significantly antagonized the effect of ACh
[1]; Table 2, chiral compounds
  α7 Imax: 0.426 ± 0.021
[1]; Table 4
  α7 Imax: 0.426 ± 0.02
[1]; [11]
  EC50: 3.06 ± 0.38 µM
[1]; [12]
  EC50: 3.06 ± 0.38 µM
[5]
  IC50: 0.21 ± 0.06 µM
[3]
  receptor selectivity α9 vs α7: selective for α7
  type of activity at α9 / α9* nAChR: antagonists of the alpha 9 nicotinic acetylcholine receptor
[3]; Table 2, chiral compounds
  α9 Imax: 0.0065 ± 0.72
[3]; [13]
  α9 Imax: 0.0065 ± 0.72
[3]; listed as (2R)PA-diMPP
  type of activity at α9 / α9* nAChR: lost nearly all agonist activity for α9* receptors
[6]
  IC50: 0.406 ± 0.15 µM

## CC[N+]1(C)CCN(c2ccc(NC(=O)c3cccc(Br)n3)cc2)CC1 [V-a]
[1]
  EC50: 7.1 ± 3.17 µM
[1]; Table 3
  α7 Imax: 0.094 ± 0.012
[2]
  EC50: 0.44 ± 0.108 µM
[3]; Table 3, reverse amide GATs
  α9 Imax: 0.936 ± 0.04

## CC[N+]1(C)CCN(c2ccc(C(=O)Nc3cccc(C)n3)cc2)C[C@@H]1C (stereo partly drawn) [IV-b]
[4]
  inhibition of BzATP-induced release of IL-1β: significantly inhibited
[1]; Table 2, chiral compounds
  α7 Imax: 0.238 ± 0.004
[1]; Table 4
  α7 Imax: 0.24 ± 0.004
[1]; [11]
  EC50: 7.1 ± 0.49 µM
[1]; [12]
  EC50: 7.1 ± 0.49 µM
[3]
  receptor selectivity α9 vs α7: selective towards α9
[3]; Table 2, chiral compounds
  α9 Imax: 0.670 ± 0.02
[3]; [13]
  α9 Imax: 0.670 ± 0.02
[3]; Table 2, unit inferred
  EC50: 2.09 ± 0.63 µM
[3]; Table 4, unit inferred
  EC50: 2.09 ± 0.63 µM

## CC[N+]1(C)CCN(c2ccc(C#N)cc2)C[C@H]1C (stereo partly drawn) [(2R)r/s-pCN-EMPP]
[4]
  inhibitory effect on IL-1β release at the lowest concentration tested: moderate but significant inhibitory effects
  inhibition of BzATP-induced release of IL-1β: significantly inhibited

## CC[N+]1(C)CCN(c2ccc(NC(=O)c3ncc(C(F)(F)F)cc3Cl)cc2)CC1 [V-i]
[1]; Table 3
  α7 Imax: 0.001 ± 0.14
[2]
  EC50: 0.81 ± 0.38 µM
[3]; Table 3, reverse amide GATs
  α9 Imax: 1.23 ± 0.13

## Cc1cccc(NC(=O)c2ccc(N3CC[N+](C)(C)[C@@H](C)C3)cc2)n1 [Compound IV-e]
[4]
  inhibition of BzATP-induced release of IL-1β: significantly inhibited
  antagonism of the effect of ACh on IL-1β release: significantly antagonized the effect of ACh
[1]; Table 2, chiral compounds
  α7 Imax: 0.397 ± 0.011
[1]; Table 4
  α7 Imax: 0.397 ± 0.01
[1]; [11]
  EC50: 3.49 ± 0.35 µM
[1]; [12]
  EC50: 3.49 ± 0.35 µM
[5]
  IC50: 0.24 ± 0.11 µM
[3]
  receptor selectivity α9 vs α7: selective for α7
  type of activity at α9 / α9* nAChR: antagonists of the alpha 9 nicotinic acetylcholine receptor
[3]; Table 2, chiral compounds
  α9 Imax: 0.04 ± 0.005
[3]; [13]
  α9 Imax: 0.04 ± 0.005
[3]; listed as (2S)PA-diMPP
  type of activity at α9 / α9* nAChR: lost nearly all agonist activity for α9* receptors
[3]; Table 2, unit inferred
  EC50: 0.8 ± 0.6 µM
[3]; Table 4, unit inferred
  EC50: 0.8 ± 0.6 µM
[6]
  IC50: 4.33 ± 1.14 µM

## CCN(CC)CCOC(=O)c1ccc(N)cc1 [procaine]
[7]
  half-life at 1 μM: < 5 min

## CC[N+]1(C)CCN(c2ccc(C(=O)Nc3cccc(C)n3)cc2)CC1 [Compound 3f, reference compound]
[8]
  clearance: low clearance
[9]
  plasma protein binding: 32%
[1]; [14]
  α7 Imax: 0.40 ± 0.02
[1]; Table 4
  α7 Imax: 0.40 ± 0.02
[1]; [15]
  EC50: 6.1 ± 1.1 µM
[1]; [12]
  EC50: 6.1 ± 1.1 µM
[3]; [16]
  α9 Imax: 1.19 ± 0.03
[3]; [13]
  α9 Imax: 1.19 ± 0.03
[3]; [17]
  EC50: 0.51 ± 0.07 µM
[3]; Table 4, unit inferred
  EC50: 0.51 ± 0.07 µM
[10]
  clearance: low clearance

## CC[N+]1(C)CCN(c2ccc(NC(=O)c3ccc4ccccc4n3)cc2)CC1 [V-f]
[1]
  EC50: 2.03 ± 0.54 µM
[1]; Table 3
  α7 Imax: 0.124 ± 0.009
[2]
  EC50: 0.157 µM
[3]; Table 3, reverse amide GATs
  α9 Imax: 1.008 ± 0.048

## CC[N+]1(C)CCN(c2ccc(C#N)cc2)CC1C [(2S)r/s-pCN-EMPP]
[4]
  inhibition of BzATP-induced release of IL-1β: significantly inhibited
[1]
  EC50: 26.6 ± 9.6 µM

## CC[N+]1(C)CCN(c2ccc(NC(=O)c3cccc(Cl)n3)cc2)CC1 [V-b]
[1]
  EC50: 14 µM
[1]; Table 3
  α7 Imax: 0.10 ± 0.028
[2]
  EC50: 0.56 ± 0.065 µM
[3]; Table 3, reverse amide GATs
  α9 Imax: 1.00 ± 0.18

## CC[N+]1(CC)CCN(c2ccc(NC(=O)c3cccc(C)n3)cc2)CC1.[I-] [Compound I, 1,1-Diethyl-4-(4-(6-methylpicolinamido)phenyl)piperazin-1-ium iodide]
[1]; [14]
  α7 Imax: 0.14 ± 0.004
[1]; Table 3
  α7 Imax: 0.41 ± 0.025
[1]; [15]
  EC50: 4.68 ± 0.54 µM
[1]; read-out: α7 EC50, Table 3, unit inferred
  EC50: 78.3 ± 11.3 µM
[3]; [16]
  α9 Imax: 1.24 ± 0.04
[3]; Table 3, reverse amide GATs
  α9 Imax: 1.01 ± 0.03
[3]; [17]
  EC50: 1.63 ± 0.2 µM
[3]; Table 3, unit not printed (text gives 0.086 as 86 nM)
  EC50: 0.23 ± 0.034 µM

## CC[N+]1(C)CCN(c2ccc(NC(C)=O)cc2)CC1 [Compound III, 4-(4-Acetamidophenyl)-1-ethyl-1-methylpiperazin-1-ium Iodide]
[2]
  EC50: 0.23 µM
[3]; [16]
  α9 Imax: 0.75 ± 0.04
[3]; [17]
  EC50: 2.27 ± 0.49 µM
[3]; α9
  increase in potency relative to ACh: 113 fold

## CC[N+]1(C)CCN(c2ccc(NC(=O)c3ccc(C)cn3)cc2)CC1 [V-h]
[1]
  EC50: 315 µM
[1]; Table 3
  α7 Imax: 0.266 ± 0.33
[2]
  EC50: 0.44 ± 0.14 µM
[3]; Table 3, reverse amide GATs
  α9 Imax: 1.00 ± 0.08
